The record followed here is ChEMBL document CHEMBL1137032, “Nonpeptide alpha V beta 3 antagonists. Part 10: In vitro and in vivo evaluation of a potent 7-methyl substituted tetrahydro-[1,8]naphthyridine derivative” (Bioorg Med Chem Lett, 2004).

A short description of data set [1]: Plasma clearance in rat. Conditions: in vivo. The class given is ADME, organism-based.
A short description of data set [2]: Effect was measured in male rats on distal femoral metaphysis bone mineral density. The class given is ADME. Conditions: rat.
In data set [3] the target is Integrin alpha-V/beta-3 (Homo sapiens) (UniProt P05106+P06756). The data set is described as follows: In vitro binding affinity against integrin Alpha-v Beta3 receptor in SPA assay. The class given is protein-complex assay.
The nature of data set [4]: Bioavailability in dog. The class given is ADME, organism-based, Canis lupus familiaris. Conditions: in vivo.
Data set [5] is described as follows: Bioavailability in rat. The class given is ADME, organism-based. Conditions: in vivo.
Data set [6] is described as follows: Human plasma binding affinity was determined. To be noted: read-out: PB (converted). Format: ADME, cell-free.
The nature of data set [7]: Bioavailability in rhesus Monkey. Conditions: in vivo. Format: ADME, organism-based, Macaca mulatta.
The nature of data set [8]: Plasma clearance in dog. Format: ADME, organism-based, Canis lupus familiaris. Conditions: in vivo.
Data set [9] can be described thus: Plasma clearance in rhesus monkey. The class given is ADME, organism-based. To be noted: cercopithecidae, in vivo.
Data set [10] is described as follows: Partition coefficient (logP). The class given is physicochemical. Conditions: octanol/water.
Data set [11] is described as follows: Half life in dog. Conditions: in vivo. Format: ADME, Canis lupus familiaris.
Data set [12] is described as follows: Bioavailability in rhesus monkey. Format: ADME, organism-based. Conditions: in vivo.
Data set [13] is described as follows: Clearance value in dog. The class given is ADME, organism-based, Canis lupus familiaris. To be noted: in vivo.
A short description of data set [14]: Clearance value in rat. The class given is ADME, organism-based. Conditions: in vivo.
Data set [15] can be described thus: Clearance value in rhesus monkey. Format: ADME, organism-based. To be noted: cercopithecidae, in vivo.

Each structure is given as a SMILES string. Values joined by “and” are separate entries in the source; they are usually repeats but may differ in a detail not shown here. Equal entries are not always repeated.

For orientation: clearance means the volume of plasma or blood freed of the substance per unit of time. In general, bioavailability refers to the share of a dose that reaches the circulation, judged against a reference dose that is usually intravenous. As usually defined, the logP is a log measure of how a compound divides between an organic and an aqueous phase. With `COc1ccc([C@H](CC(=O)O)N2CCN(CCCc3ccc4c(n3)N[C@@H](C)CC4)C2=O)cn1`, the clearance was 41 mL/min/kg in [1], 1.7 mL/min/kg in [8] and 3.5 mL/min/kg in [9]. The DFMBMD in data set [2] was 137 mg/Ecm and 147.9 mg/Ecm and 161 mg/Ecm and 141.1 mg/Ecm and 156.6 mg/Ecm. The same compound displayed an SPAV3 in data set [3] of 0.11 nM. In addition, the bioavailability in data set [4] was found to be 83%; in [5] it was 50%; in data set [7], 75%. In addition, in data set [6], the fraction unbound is 0.05. Also, the logP in data set [10] worked out at 0.69.
Compound `COc1ccc([C@H](CC(=O)O)N2CCN(CCCc3ccc4c(n3)N[C@H](C)CC4)C2=O)cn1` had an SPAV3 in data set [3] of 0.11 nM. In data set [6], the fraction unbound is 0.08. The same compound gave a logP in [10] of 0.56.
By half-life is commonly meant how long it takes for the measured level to halve. Consider `COc1ccc([C@H](CC(=O)O)N2CCN(CCCc3nc4c(cc3C)CCCN4)C2=O)cn1`, for which the half-life in data set [11] was 2.2 h. Moreover, in data set [3], the SPAV3 came out at 0.13 nM. The same compound came in with a bioavailability in data set [4] of 55%. The fraction unbound in data set [6] was 0.22. Moreover, the clearance in [8] was determined as 18 mL/min/kg. Also, the logP in data set [10] amounted to 0.62.
As for `COc1ccc([C@H](CC(=O)O)N2CCN(CCCc3ccc4c(n3)NCCC4)C2=O)cn1`, the DFMBMD in data set [2] is 133 mg/Ecm and 145 mg/Ecm and 157.2 mg/Ecm. The same compound gave an SPAV3 in data set [3] of 0.08 nM. Also, in data set [6], the fraction unbound was 0.12. In data set [12], this compound returned a bioavailability of 74%. Further, the figures for the clearance in [13], in [14] and in data set [15] were 6.4 mL/min/kg, 47 mL/min/kg and 9 mL/min/kg, respectively.
